Measured values taken from patent US20200270225A1, “Chiral Diacylhydrazine Ligands for Modulating the Expression of Exogenous Genes via an Ecdysone Receptor Complex” (Intrexon Corporation, priority 2007, published 2020).
pEC50: −log10 of the molar value. Where two headings read alike, the source gives them in different places.

Legend:
[1] = target: T1, [V390I/Y410E/E274V]-CfEcR (Choristoneura fumiferana, UniProt O77240); format: cell-based; conditions: 3T3 Cells; for RMFI (relative maximum fold induction): relative to GS-E ligand
T1 construct: assay construct b835
Experimental: (§1) Cellular gene switch assays were performed by transiently transfecting the following constructs in mouse embryonic fibroblast cells (NIH3T3). The wild-type D, E and F domains from Choristoneura fumiferana EcR or its V390I/Y410E/E274V mutant were fused to GAL4-DBD and placed under the control of the CMV promoter in the pBIND vector (Promega Corporation, Madison, Wis., USA). The DEF domains of EcRs shown were amplified using primers designed based on 20-25 nt sequences at the 5′ and 3′ ends. Restriction enzyme sites EcoR I/BamH I and Xba I were added to 5′ and 3′ primers respectively. The PCR products were digested with appropriate restriction enzymes and cloned into pBIND vector. The EcR LBDs cloned into pBIND vector were verified by sequencing. A chimeric RXR from Homo sapiens RXRP and Locusta migratoria RXR, fused to VP16-AD and placed under the control of an SV40e promoter, was constructed as previously described (Kumar P & Katakam A in Gene Transfer, Friedmann T and Rossi J, eds, pp. 643-651 (2007), Cold Spring Harbor Laboratory Press, Cold Spring Harbor, N.Y.). The inducible luciferase reporter plasmid pFRLuc (Stratagene Cloning Systems, La Jolla, Calif., USA), contains five copies of the GAL4 response element and a synthetic minimal promoter.
(§2) NIH3T3 cells were maintained at 37′C and 5% CO2 in Dulbecco's modified Eagle's medium (DMEM) supplemented with 10% bovine calf serum, both obtained from Mediatech Inc., Manassas, Va. Cells were planted in a 96-well plate at a density of 2,500 cells/well in 50 μL of growth medium. The following day cells were first treated with 35 μL of serum-free DMEM containing dimethyl sulfoxide (DMSO; control) or a DMSO solution containing ligand. Cells were then transfected with 15 μl of serum-free DMEM containing 0.04 μg of EcR construct, 0.04 ug of RXR construct, and 0.16 μg of luciferase reporter construct per well, using SuperFect™ transfection reagent (Qiagen Inc., Valencia, Calif., USA) according to the manufacturer's instructions. Ligands were tested at 8 doses from 0.01-33 μM and the final DMSO concentration was 0.33% in both control and treatment wells. After a 48 hour post-treatment and transfection incubation, the cells were assayed for luciferase activity using the Bright-Glo™ Luciferase Assay System (Promega Corporation, Madison, Wis., USA) following the manufacturer's instructions. EC50 values were measured minimally in duplicate.
(§3) Luciferase reporter gene expression was measured 48 h after cell treatment using Bright-Glo™ Luciferase Assay System from Promega (E2650). Luminescence was detected at room temperature using a Dynex MLX microtiter plate luminometer.
(§4) Each assay was conducted in two separate wells, and the two values were averaged. Fold inductions were calculated by dividing relative light units (“RLU”) in ligand treated cells with RLU in DMSO treated cells. EC50s were calculated from dose response data using a three-parameter logistic model. Relative Max FI was determined as the maximum fold induction of the tested ligand (an embodiment of the invention) observed at any concentration relative to the maximum fold induction of GS™-E ligand (3,5-dimethyl-benzoic acid N-tert-butyl-N′-(2-ethyl-3-methoxy-benzoyl)-hydrazide) observed at any concentration.

[2] = target: wild-type Choristoneura fumiferana EcR (D, E and F domains) (Choristoneura fumiferana, UniProt O77240); format: cell-based; conditions: WT-CtEcR, 3T3 Cells; for RMFI (relative maximum fold induction): relative to GS-E ligand
Experimental: as §1, §2, §3, §4

| SMILES | pEC50 ([1]; S) | RMFI (relative maximum fold induction) ([1]; S) | pEC50 ([2]; S) | RMFI (relative maximum fold induction) ([2]; S) | pEC50 ([1]; R) | RMFI (relative maximum fold induction) ([1]; R) | pEC50 ([2]; R) | RMFI (relative maximum fold induction) ([2]; R) |
| --- | --- | --- | --- | --- | --- | --- | --- | --- |
| CCC[C@H](N(NC(=O)c1c(F)cccc1F)C(=O)c1cc(C)cc(C)c1)C(C)(C)C [Example 40, (S)-3,5-Dimethyl-benzoic acid N-(1-tert-butyl-butyl)-N′-(2,6-difluoro-benzoyl)-hydrazide] | ~7.70 | 0.69 | ~6.00 | 0.39 |  |  |  |  |
| CCC[C@H](N(NC(=O)c1c(Cl)cccc1Cl)C(=O)c1cc(C)cc(C)c1)C(C)(C)C [Example 41, (S)-3,5-Dimethyl-benzoic acid N-(1-tert-butyl-butyl)-N′-(2,6-dichloro-benzoyl)-hydrazide] | ~6.15 | 0.62 | ~5.48 | 0.10 |  |  |  |  |
| CCC[C@H](N(NC(=O)c1cc(OC)c(C)c(OC)c1)C(=O)c1cc(C)cc(C)c1)C(C)(C)C [Example 42, (S)-3,5-Dimethyl-benzoic acid N-(1-tert-butyl-butyl)-N′-(3,5-dimethoxy-4-methyl-benzoyl)-hydrazide] | ~5.15 | 0.08 | < 5.00 |  |  |  |  |  |
| CCC[C@H](N(NC(=O)c1cccs1)C(=O)c1cc(C)cc(C)c1)C(C)(C)C [Example 43, (S)-3,5-Dimethyl-benzoic acid N-(1-tert-butyl-butyl)-N′-(thiophene-2-carbonyl)-hydrazide] | 5.97 | 0.52 | ~5.00 | 0.07 |  |  |  |  |
| CCC[C@H](N(NC(=O)c1cc(C)oc1C)C(=O)c1cc(C)cc(C)c1)C(C)(C)C [Example 44, (S)-3,5-Dimethyl-benzoic acid N-(1-tert-butyl-butyl)-N′-(2,5-dimethyl-furan-3-carbonyl)-hydrazide] | ~5.70 | 0.49 | 5.15 | 0.32 |  |  |  |  |
| CCC[C@H](N(NC(=O)c1cccnc1Cl)C(=O)c1cc(C)cc(C)c1)C(C)(C)C [Example 45, (S)-3,5-Dimethylbenzoic acid N-(1-tert-butyl-butyl)-N′-(2-chloro-pyridine-3-carbonyl)-hydrazide] | 5.83 | 0.80 | ~4.70 | 0.05 |  |  |  |  |
| CCC[C@H](N(NC(=O)c1cccc(OC)c1C)C(=O)c1cc(C)cc(C)c1)C(C)(C)C [Example 47, (S)-3,5-Dimethyl-benzoic acid N-(1-tert-butyl-butyl)-N′-(3-methoxy-2-methyl-benzoyl)-hydrazide] | 7.25 | 0.57 | ~6.70 | 0.49 |  |  |  |  |
| CCC[C@H](N(NC(=O)OC(C)(C)C)C(=O)c1cc(C)cc(C)c1)C(C)(C)C [Example 48, (S)—N′-(1-tert-Butyl-butyl)-N′-(3,5-dimethyl-benzoyl)-hydrazinecarboxylic Acid tert-butyl Ester] | 5.18 | 0.20 | < 4.48 | 0.03 |  |  |  |  |
| CCC[C@@H](N(NC(=O)OC(C)(C)C)C(=O)c1cc(C)cc(C)c1)C(C)(C)C [Example 49, (R)—N′-(1-tert-Butyl-butyl)-N′-(3,5-dimethyl-benzoyl)-hydrazinecarboxylic acid tert-butyl Ester] |  |  |  |  | 5.56 | 0.59 | 4.82 | 0.15 |
| CCC[C@@H](N(NC(=O)c1cccc(OC)c1C)C(=O)c1cc(OC)c(C)c(OC)c1)C(C)(C)C [Example 51, (R)-3,5-Dimethoxy-4-methyl-benzoic acid N-(1-tert-butyl-butyl)-N′-(3-methoxy-2-methyl-benzoyl)-hydrazide] |  |  |  |  | 9.25 | 0.81 | ~7.15 | 1.00 |
| CCC[C@H](C1CCCCC1)N(NC(=O)c1cccc(OC)c1CC)C(=O)c1cc(C)cc(C)c1 [Example 52, (R)-3,5-Dimethyl-benzoic Acid N-(1-cyclohexyl-butyl)-N′-(2-ethyl-3-methoxy-benzoyl)-hydrazide] |  |  |  |  | ~6.70 | 0.64 | 6.66 | 0.38 |
| CCC[C@H](C1CCCCC1)N(NC(=O)c1ccccc1)C(=O)c1cc(C)cc(C)c1 [Example 53, (R)-3,5-Dimethyl-benzoic acid N′-benzoyl-N-(1-cyclohexyl-butyl)-hydrazide] |  |  |  |  | 6.20 | 0.62 | ~5.48 | 0.30 |
| CCC[C@H](C1CCCCC1)N(NC(=O)c1cccc(OC)c1)C(=O)c1cc(C)cc(C)c1 [Example 54, (R)-3,5-Dimethyl-benzoic acid N-(1-cyclohexyl-butyl)-N′-(3-methoxy-benzoyl)-hydrazide] |  |  |  |  | 6.32 | 0.44 | ~5.48 | 0.19 |
| CCC[C@H](C1CCCCC1)N(NC(=O)c1ccc(CC)cc1)C(=O)c1cc(C)cc(C)c1 [Example 55, (R)-3,5-Dimethyl-benzoic acid N-(1-cyclohexyl-butyl)-N′-(4-ethyl-benzoyl)-hydrazide] |  |  |  |  | ~7.15 | 0.42 | ~5.70 | 0.26 |
| CCC[C@@H](C1CCCCC1)N(NC(=O)c1cccc(OC)c1CC)C(=O)c1cc(C)cc(C)c1 [Example 56, (S)-3,5-Dimethyl-benzoic acid N-(1-cyclohexyl-butyl)-N′-(2-ethyl-3-methoxy-benzoyl)-hydrazide] | 6.97 | 0.52 | 6.80 | 0.37 |  |  |  |  |
| CCC[C@@H](C1CCCCC1)N(NC(=O)c1ccccc1)C(=O)c1cc(C)cc(C)c1 [Example 57, (S)-3,5-Dimethyl-benzoic acid N′-benzoyl-N-(1-cyclohexyl-butyl)-hydrazide] | 6.11 | 0.50 | 5.56 | 0.32 |  |  |  |  |
| CCC[C@@H](C1CCCCC1)N(NC(=O)c1cccc(OC)c1)C(=O)c1cc(C)cc(C)c1 [Example 58, (S)-3,5-Dimethyl-benzoic acid N-(1-cyclohexyl-butyl)-N′-(3-methoxy-benzoyl)-hydrazide] | 6.92 | 0.42 | ~5.48 | 0.25 |  |  |  |  |
| CCC[C@@H](C1CCCCC1)N(NC(=O)c1ccc(CC)cc1)C(=O)c1cc(C)cc(C)c1 [Example 59, (S)-3,5-Dimethyl-benzoic acid N-(1-cyclohexyl-butyl)-N′-(4-ethyl-benzoyl)-hydrazide] | ~7.52 | 0.35 | ~6.00 | 0.28 |  |  |  |  |
| C=CC[C@H](C1CCCCC1)N(NC(=O)c1cccc(OC)c1C)C(=O)c1cc(C)cc(C)c1 [Example 60, (R)-3,5-Dimethyl-benzoic acid N-(1-cyclohexyl-but-3-enyl)-N′-(3-methoxy-2-methyl-benzoyl)-hydrazide] |  |  |  |  | 6.13 | 0.78 | ~5.70 | 0.62 |
| C=CC[C@H](C1CCCCC1)N(NC(=O)c1cccc(OC)c1C)C(=O)c1cc(C)c(OC)c(C)c1 [Example 61, (R)-4-Methoxy-3,5-dimethyl-benzoic acid N-(1-cyclohexyl-but-3-enyl)-N′-(3-methoxy-2-methyl-benzoyl)-hydrazide] |  |  |  |  | 5.99 | 0.67 | ~5.48 | 0.33 |
